Drawing on patent US20250101028A1, “HETEROCYCLIC COMPOUNDS, COMPOSITIONS THEREOF, AND METHODS OF TREATMENT THEREWITH” (BeiGene, Ltd., priority 2022, published 2025), this text covers IC50 for 20 compounds.

The IC50 is the point on the concentration scale where inhibition reaches its midpoint. Higher therefore signals weaker potency.

This experiment addresses T1, GST-tagged GDP-loaded KRAS G12V (amino acids 1-169) (Homo sapiens, UniProt P01116, G12V).
T1 construct: GST-tagged GDP-loaded KRAS G12V (amino acids 1-169); made in house; host or cells: E. coli
Put plainly: KRAS G12V probe displacement assay (TR-FRET). The note with it: displacement of biotinylated probe 2 from GDP-loaded KRAS G12V. It counts as binding. An outline of the steps:
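Probe displacement read as TR-FRET (665/620 nm) with anti-GST-Tb and streptavidin-XL665, IC50 from four-parameter logistic fit. Compound preincubated 1 h, 24 °C, with E. coli-expressed KRAS 1-169: WT at 3 nM with 60 nM probe 1, G12V at 2 nM with 2.5 nM probe 2, pH 7.5.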
(In general: In TR-FRET formats the signal depends on donor and acceptor labels being close together.)

T1 sequence (P01116 1-169 isoform P01116-2 G12V): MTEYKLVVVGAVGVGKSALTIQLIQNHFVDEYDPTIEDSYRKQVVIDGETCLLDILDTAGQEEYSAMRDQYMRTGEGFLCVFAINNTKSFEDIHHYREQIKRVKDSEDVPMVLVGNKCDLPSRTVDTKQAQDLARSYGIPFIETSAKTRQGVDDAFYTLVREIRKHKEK

Consider `C[C@@H]1CCCN1c1nc(OC[C@@]23CCCN2C[C@H](F)C3)nc2c(F)c(-c3ccc(F)c4sc(N)nc34)c(C(F)(F)F)cc12` [Example 55, 7-fluoro-4-(8-fluoro-2-(((2R,7aS)-2-fluorotetrahydro-1H-pyrrolizin-7a(5H)-yl)methoxy)-4-((R)-2-methylpyrrolidin-1-yl)-6-(trifluoromethyl)quinazolin-7-yl)benzo[d]thiazol-2-amine], for which the IC50 was 0.168 µM.
`Nc1nc2c(-c3c(C(F)(F)F)cc4c(N5CC[C@@H](O)C5)nc(OC[C@@]56CCCN5C[C@H](F)C6)nc4c3F)ccc(F)c2s1` [Example 63, (3R)-1-(7-(2-amino-7-fluorobenzo[d]thiazol-4-yl)-8-fluoro-2-(((2R,7aS)-2-fluorotetrahydro-1H-pyrrolizin-7a(5H)-yl)methoxy)-6-(trifluoromethyl)quinazolin-4-yl)pyrrolidin-3-ol] gave an IC50 of 0.011 µM.
Consider `C[C@H]1CCCN1c1nc(OC[C@@]23CCCN2C[C@H](F)C3)nc2c(F)c(-c3ccc(F)c4sc(N)nc34)c(C(F)(F)F)cc12` [Example 56, 7-fluoro-4-(8-fluoro-2-(((2R,7aS)-2-fluorotetrahydro-1H-pyrrolizin-7a(5H)-yl)methoxy)-4-((S)-2-methylpyrrolidin-1-yl)-6-(trifluoromethyl)quinazolin-7-yl)benzo[d]thiazol-2-amine], for which the IC50 turned out to be 0.022 µM.
As for `CC1(C)CCN1c1nc(OC[C@@]23CCCN2C[C@H](F)C3)nc2c(F)c(-c3ccc(F)c4sc(N)nc34)c(C(F)(F)F)cc12` [Example 36, 4-(4-(2,2-dimethylazetidin-1-yl)-8-fluoro-2-(((2R,7aS)-2-fluorotetrahydro-1H-pyrrolizin-7a(5H)-yl)methoxy)-6-(trifluoromethyl)quinazolin-7-yl)-7-fluorobenzo[d]thiazol-2-amine], the IC50 is 0.019 µM.
To `C[C@]1(O)CCCN(c2nc(OC[C@@]34CCCN3C[C@H](F)C4)nc3c(F)c(-c4cc(N)cc(Cl)c4C(F)(F)F)ncc23)C1` [Example 129, (S)-1-(7-(5-amino-3-chloro-2-(trifluoromethyl)phenyl)-8-fluoro-2-(((2R,7aS)-2-fluorotetrahydro-1H-pyrrolizin-7a(5H)-yl)methoxy)pyrido[4,3-d]pyrimidin-4-yl)-3-methylpiperidin-3-ol] belongs 0.015 µM.
To `Nc1nc2c(-c3c(C(F)(F)F)cc4c(N5CCCC(CO)CC5)nc(OC[C@@]56CCCN5C[C@H](F)C6)nc4c3F)ccc(F)c2s1` (stereo partly drawn) [Example 85, (1-(7-(2-amino-7-fluorobenzo[d]thiazol-4-yl)-8-fluoro-2-(((2R,7aS)-2-fluorotetrahydro-1H-pyrrolizin-7a(5H)-yl)methoxy)-6-(trifluoromethyl)quinazolin-4-yl)azepan-4-yl)methanol] belongs 0.0023 µM; to `Nc1nc2c(-c3c(C(F)(F)F)cc4c(N5CC[C@@H](CO)C5)nc(OC[C@@]56CCCN5C[C@H](F)C6)nc4c3F)ccc(F)c2s1` [Example 65, ((3R)-1-(7-(2-amino-7-fluorobenzo[d]thiazol-4-yl)-8-fluoro-2-(((2R,7aS)-2-fluorotetrahydro-1H-pyrrolizin-7a(5H)-yl)methoxy)-6-(trifluoromethyl)quinazolin-4-yl)pyrrolidin-3-yl)methanol], 0.0041 µM; to `CC1(C#N)CN(c2nc(OC[C@@]34CCCN3C[C@H](F)C4)nc3c(F)c(-c4ccc(F)c5sc(N)nc45)c(C(F)(F)F)cc23)C1` [Example 42, 1-(7-(2-amino-7-fluorobenzo[d]thiazol-4-yl)-8-fluoro-2-(((2R,7aS)-2-fluorotetrahydro-1H-pyrrolizin-7a(5H)-yl)methoxy)-6-(trifluoromethyl)quinazolin-4-yl)-3-methylazetidine-3-carbonitrile], 0.07 µM.
Turning to `Nc1nc2c(-c3c(C(F)(F)F)cc4c(N5CCC(O)CC5)nc(OC[C@@]56CCCN5C[C@H](F)C6)nc4c3F)ccc(F)c2s1` [Example 78, 1-(7-(2-amino-7-fluorobenzo[d]thiazol-4-yl)-8-fluoro-2-(((2R,7aS)-2-fluorotetrahydro-1H-pyrrolizin-7a(5H)-yl)methoxy)-6-(trifluoromethyl)quinazolin-4-yl)piperidin-4-ol], the concentration for half-maximal inhibition (IC50) was 0.0033 µM.
As to `CCC1(O)CCCN(c2nc(OC[C@@]34CCCN3C[C@H](F)C4)nc3c(F)c(-c4cc(N)cc(Cl)c4C(F)(F)F)ncc23)C1` (stereo partly drawn) [Example 130, 1-(7-(5-amino-3-chloro-2-(trifluoromethyl)phenyl)-8-fluoro-2-(((2R,7aS)-2-fluorotetrahydro-1H-pyrrolizin-7a(5H)-yl)methoxy)pyrido[4,3-d]pyrimidin-4-yl)-3-ethylpiperidin-3-ol], the IC50 worked out at 0.032 µM.
On to `Nc1nc2c(-c3c(C(F)(F)F)cc4c(N5CC[C@H](F)C5)nc(OC[C@@]56CCCN5C[C@H](F)C6)nc4c3F)ccc(F)c2s1` [Example 52, 7-fluoro-4-(8-fluoro-4-((S)-3-fluoropyrrolidin-1-yl)-2-(((2R,7aS)-2-fluorotetrahydro-1H-pyrrolizin-7a(5H)-yl)methoxy)-6-(trifluoromethyl)quinazolin-7-yl)benzo[d]thiazol-2-amine], for which the IC50 was 0.019 µM.
For `CCN1CC2(CCN(c3nc(OC[C@@]45CCCN4C[C@H](F)C5)nc4c(F)c(-c5ccc(F)c6sc(N)nc56)c(C(F)(F)F)cc34)CC2)OC1=O` [Example 88, 8-(7-(2-amino-7-fluorobenzo[d]thiazol-4-yl)-8-fluoro-2-(((2R,7aS)-2-fluorotetrahydro-1H-pyrrolizin-7a(5H)-yl)methoxy)-6-(trifluoromethyl)quinazolin-4-yl)-3-ethyl-1-oxa-3,8-diazaspiro[4.5]decan-2-one], the IC50 was 0.0014 µM.
The compound `N#CC1CCN(c2nc(OC[C@@]34CCCN3C[C@H](F)C4)nc3c(F)c(-c4cc(N)cc(Cl)c4C(F)(F)F)ncc23)CC1` [Example 121, 1-(7-(5-amino-3-chloro-2-(trifluoromethyl)phenyl)-8-fluoro-2-(((2R,7aS)-2-fluorotetrahydro-1H-pyrrolizin-7a(5H)-yl)methoxy)pyrido[4,3-d]pyrimidin-4-yl)piperidine-4-carbonitrile] came in with an IC50 of 0.013 µM.
Regarding `CC1C(O)CN1c1nc(OC[C@@]23CCCN2C[C@H](F)C3)nc2c(F)c(-c3ccc(F)c4sc(N)nc34)c(C(F)(F)F)cc12` (stereo partly drawn) [Example 47, 1-(7-(2-amino-7-fluorobenzo[d]thiazol-4-yl)-8-fluoro-2-(((2R,7aS)-2-fluorotetrahydro-1H-pyrrolizin-7a(5H)-yl)methoxy)-6-(trifluoromethyl)quinazolin-4-yl)-2-methylazetidin-3-ol], the IC50 was found to be 0.0019 µM.
In turn, `C[C@]1(O)CCCN(c2nc(OC[C@@]34CCCN3C[C@H](F)C4)nc3c(F)c(-c4ccc(F)c5sc(N)nc45)c(C(F)(F)F)cc23)C1` [Example 79, (3S)-1-(7-(2-amino-7-fluorobenzo[d]thiazol-4-yl)-8-fluoro-2-(((2R,7aS)-2-fluorotetrahydro-1H-pyrrolizin-7a(5H)-yl)methoxy)-6-(trifluoromethyl)quinazolin-4-yl)-3-methylpiperidin-3-ol] returned an IC50 of 0.028 µM.
`N#C[C@H]1CCC[C@H]1Nc1nc(OC[C@@]23CCCN2C[C@H](F)C3)nc2c(F)c(-c3ccc(F)c4sc(N)nc34)c(C(F)(F)F)cc12` [Example 26, (1S,2R)-2-((7-(2-amino-7-fluorobenzo[d]thiazol-4-yl)-8-fluoro-2-(((2R,7aS)-2-fluorotetrahydro-1H-pyrrolizin-7a(5H)-yl)methoxy)-6-(trifluoromethyl)quinazolin-4-yl)amino)cyclopentane-1-carbonitrile] displayed an IC50 of 0.011 µM.
The compound `Cc1cc(N)nc(-c2c(Cl)cc3c(N4CCC5(CC4)CN(C)C(=O)O5)nc(OC[C@@]45CCCN4C[C@H](F)C5)nc3c2F)c1C(F)(F)F` [Example 106, 8-(7-(6-amino-4-methyl-3-(trifluoromethyl)pyridin-2-yl)-6-chloro-8-fluoro-2-(((2R,7aS)-2-fluorotetrahydro-1H-pyrrolizin-7a(5H)-yl)methoxy)quinazolin-4-yl)-3-methyl-1-oxa-3,8-diazaspiro[4.5]decan-2-one] yielded an IC50 of 0.023 µM.
To `N#C[C@H]1C[C@@H](Nc2nc(OC[C@@]34CCCN3C[C@H](F)C4)nc3c(F)c(-c4ccc(F)c5sc(N)nc45)c(C(F)(F)F)cc23)C1` [Example 18, (cis)-3-((7-(2-amino-7-fluorobenzo[d]thiazol-4-yl)-8-fluoro-2-(((2R,7aS)-2-fluorotetrahydro-1H-pyrrolizin-7a(5H)-yl)methoxy)-6-(trifluoromethyl)quinazolin-4-yl)amino)cyclobutane-1-carbonitrile] belongs 0.013 µM; to `Nc1nc2c(-c3c(C(F)(F)F)cc4c(NC5CCC(F)C5)nc(OC[C@@]56CCCN5C[C@H](F)C6)nc4c3F)ccc(F)c2s1` (stereo in doubt) [Example 25, 7-fluoro-4-(8-fluoro-4-(((1S,3R)-3-fluorocyclopentyl)amino)-2-(((2R,7aS)-2-fluorotetrahydro-1H-pyrrolizin-7a(5H)-yl)methoxy)-6-(trifluoromethyl)quinazolin-7-yl) benzo[d]thiazol-2-amine], 0.038 µM; to `Nc1nc2c(-c3c(C(F)(F)F)cc4c(N5CCC6(CC5)CN(CC(F)(F)F)C(=O)O6)nc(OC[C@@]56CCCN5C[C@H](F)C6)nc4c3F)ccc(F)c2s1` [Example 91, 8-(7-(2-amino-7-fluorobenzo[d]thiazol-4-yl)-8-fluoro-2-(((2R,7aS)-2-fluorotetrahydro-1H-pyrrolizin-7a(5H)-yl)methoxy)-6-(trifluoromethyl)quinazolin-4-yl)-3-(2,2,2-trifluoroethyl)-1-oxa-3,8-diazaspiro[4.5]decan-2-one], 0.0038 µM.
